Measurements as given in US5693626A, “Tetrahydrofuran antifungals” (Schering Corporation, priority 1995, dated 1997).
≈ marks a conversion by molar mass, not a printed value.

Key:
[1] = Janssen U.S. Pat. No. 4,791,111; cited from earlier work
Candida albicans [2] = test: broth dilution MIC, Candida albicans; format: cell-based; details: 26 strains; for percentage of strains with MICs ≤1 mcg/ml: Table Q; for MIC90: Table S
Description: (§1) The in vitro antifungal activity tests were performed via conventional broth dilution methods in Sabouraud dextrose broth ("SDB") medium and Eagles Minimum Essential Medium ("EMEM") against a large number of fungi. Minimum Inhibitory Concentrations ("MICs") were measured after 24, 48 and 72 hour tests. In many cases, Minimum Fungicidial Concentrations ("MFCS") were measured after 48 and 72 hours.

Cryptococcus neoformans [3] = test: broth dilution MIC, Cryptococcus neoformans; format: cell-based; details: 3 strains; for percentage of strains with MICs ≤1 mcg/ml: Table Q; for MIC90: Table S
Description: as §1

Candida albicans [4] = test: broth dilution MFC, Candida albicans; details: 26 strains, Table R
Description: as §1

[5] = tested on: Candida tropicalis & stellatoidea; test: broth dilution MFC, Candida tropicalis & stellatoidea; details: 5 strains, Table R
Description: as §1

Candida krusei [6] = test: broth dilution MIC, Candida krusei; format: cell-based; details: 16 strains; for percentage of strains with MICs ≤1 mcg/ml: Table Q; for MIC90: Pichia kudriavzevii, Table S
Dermatophytes [7] = test: broth dilution MIC, Dermatophytes; format: cell-based, T. rubrum, T. mentagrophytes, and T. tonsurans; details: 6 strains; for percentage of strains with MICs ≤1 mcg/ml: Table Q; for MIC90: Table S
Dermatophytes [8] = test: broth dilution MFC, Dermatophytes; format: cell-based, T. rubrum, T. mentagrophytes, and T. tonsurans; details: 6 strains, Table R
Description: as §1

Cryptococcus neoformans [9] = test: broth dilution MFC, Cryptococcus neoformans; format: cell-based; details: 3 strains, Table R
Description: as §1

Aspergillus [10] = test: broth dilution MIC, Aspergillus; format: cell-based, Aspergillus (flavus, fumigatus and other species); details: for percentage of strains with MICs ≤1 mcg/ml / MIC90: Aspergillus, 37 strains; for percentage of strains with MICs ≤1 mcg/ml: Table Q; for MIC90: Table S
Candida glabrata [11] = test: broth dilution MFC, Candida glabrata; format: cell-based; details: 9 strains, Table R
Description: as §1

[12] = tested on: Candida tropicalis & stellatoidea; test: broth dilution MIC, Candida tropicalis & stellatoidea; format: cell-based; details: 5 strains; for percentage of strains with MICs ≤1 mcg/ml: Table Q; for MIC90: Table S
Description: as §1

Aspergillus [13] = test: broth dilution MFC, Aspergillus; format: cell-based, Aspergillus (flavus, fumigatus and other species); details: for percentage of strains with MFCs ≤1 mcg/ml: Aspergillus, 37 strains, Table R
Candida krusei [14] = test: broth dilution MFC, Candida krusei; format: cell-based; details: 16 strains, Table R
Description: as §1

Candida glabrata [15] = test: broth dilution MIC, Candida glabrata; format: cell-based; details: 9 strains; for percentage of strains with MICs ≤1 mcg/ml: Table Q
Description: as §1

[16] = serum levels following oral dosing, monkeys; format: in vivo; details: methyl cellulose formulation
[17] = serum levels following oral dosing, dogs; format: in vivo; details: methyl cellulose formulation
[18] = serum levels following oral dosing, rats; format: in vivo; details: methyl cellulose formulation
[19] = tested on: cytochrome P-450 liver drug metabolizing enzymes; test: induction of cytochrome P-450 after oral administration in an in vivo rat model
[20] = serum levels following oral dosing, mice; format: in vivo; details: methyl cellulose formulation

SMILES	percentage of strains with MICs ≤1 mcg/ml (Candida albicans [2])	percentage of strains with MICs ≤1 mcg/ml (Cryptococcus neoformans [3])	MIC90 (Cryptococcus neoformans [3]) [µg/mL]	percentage of strains with MFCs ≤1 mcg/ml (Candida albicans [4])	percentage of strains with MFCs ≤1 mcg/ml [5]	percentage of strains with MICs ≤1 mcg/ml (Candida krusei [6])	MIC90 (Candida krusei [6]) [µg/mL]	percentage of strains with MICs ≤1 mcg/ml (Dermatophytes [7])	MIC90 (Dermatophytes [7]) [µg/mL]	percentage of strains with MFCs ≤1 mcg/ml (Dermatophytes [8])	percentage of strains with MFCs ≤1 mcg/ml (Cryptococcus neoformans [9])	percentage of strains with MICs ≤1 mcg/ml (Aspergillus [10])	percentage of strains with MFCs ≤1 mcg/ml (Candida glabrata [11])	percentage of strains with MICs ≤1 mcg/ml [12]	MIC90 [12] [µg/mL]	percentage of strains with MFCs ≤1 mcg/ml (Aspergillus [13])	percentage of strains with MFCs ≤1 mcg/ml (Candida krusei [14])	percentage of strains with MICs ≤1 mcg/ml (Candida glabrata [15])	MIC90 (Candida albicans [2]) [µg/mL]	MIC90 (Aspergillus [10]) [µg/mL]	further results
CC(O)C(C)n1ncn(-c2ccc(N3CCN(c4ccc(OCC5COC(Cn6cncn6)(c6ccc(Cl)cc6Cl)O5)cc4)CC3)cc2)c1=O (single isomer, unassigned; (+)) [(+)cis-4-[4-[4-[4-[[2-2,4-dichlorophenyl)-2-(1H-1,2,4-triazol-1-ylmethyl)-1,3-dioxolan-4-yl]methoxy]phenyl]-1-piperazinyl]-2,4dihydro-2-(2-hydroxy-1-methylpropyl)-3H-1,2,4-triazol-3-one]																					solubility [1]: increased solubility
CC[C@H]([C@H](C)O)n1ncn(-c2ccc(N3CCN(c4ccc(OC[C@@H]5CO[C@@](Cn6cncn6)(c6ccc(F)cc6F)C5)cc4)CC3)cc2)c1=O	100 percentage of strains	100 percentage of strains	0.05 (≈ 0.0713 µM)	100 percentage of strains	100 percentage of strains	100 percentage of strains	0.058 (≈ 0.0828 µM)	100 percentage of strains	0.165 (≈ 0.235 µM)	67 percentage of strains	100 percentage of strains	100 percentage of strains	22 percentage of strains	100 percentage of strains	0.117 (≈ 0.167 µM)	50 percentage of strains	88 percentage of strains	22 percentage of strains			
CC[C@@H]([C@H](C)O)n1ncn(-c2ccc(N3CCN(c4ccc(OC[C@@H]5CO[C@@](Cn6cncn6)(c6ccc(F)cc6F)C5)cc4)CC3)cc2)c1=O [drawing 23]	100 percentage of strains	100 percentage of strains	0.007 (≈ 0.00999 µM)	100 percentage of strains	100 percentage of strains	100 percentage of strains	0.014 (≈ 0.02 µM)	100 percentage of strains	0.101 (≈ 0.144 µM)	83 percentage of strains	100 percentage of strains	100 percentage of strains	22 percentage of strains	100 percentage of strains	0.117 (≈ 0.167 µM)	62 percentage of strains	94 percentage of strains	22 percentage of strains	0.174 (≈ 0.248 µM)	0.096 (≈ 0.137 µM)	MIC90 (Candida glabrata [15]; Nakaseomyces glabratus, Table S): 17.1 µg/mL (≈ 24.4 µM)
CC[C@@H]([C@@H](C)O)n1ncn(-c2ccc(N3CCN(c4ccc(OC[C@@H]5CO[C@@](Cn6cncn6)(c6ccc(F)cc6F)C5)cc4)CC3)cc2)c1=O	100 percentage of strains	100 percentage of strains	0.101 (≈ 0.144 µM)	100 percentage of strains	100 percentage of strains	100 percentage of strains	0.12 (≈ 0.171 µM)	100 percentage of strains	0.707 (≈ 1.01 µM)	100 percentage of strains	100 percentage of strains	100 percentage of strains	22 percentage of strains	100 percentage of strains	0.354 (≈ 0.505 µM)	89 percentage of strains	100 percentage of strains	33 percentage of strains	0.139 (≈ 0.198 µM)	0.112 (≈ 0.16 µM)	
CC[C@@H]([C@H](C)O)n1ncn(-c2ccc(N3CCN(c4ccc(OC[C@@H]5CO[C@@](Cn6cncn6)(c6ccc(F)cc6F)C5)cc4)CC3)cc2)c1=O [drawing 21]																					serum levels compared to azoles of similar structure [16]: consistently higher serum levels; serum levels compared to azoles of similar structure [17]: consistently higher serum levels; serum levels compared to azoles of similar structure [18]: consistently higher serum levels; induction of cytochrome P-450 liver drug metabolizing enzymes [19]: not inducers; serum levels compared to azoles of similar structure [20]: consistently higher serum levels
OC(Cn1cncn1)(Cn1cncn1)c1ccc(F)cc1F [fluconazole, reference compound]	100 percentage of strains	0 percentage of strains		100 percentage of strains	100 percentage of strains	0 percentage of strains		100 percentage of strains		0 percentage of strains	0 percentage of strains	0 percentage of strains	0 percentage of strains	100 percentage of strains		0 percentage of strains	0 percentage of strains	0 percentage of strains			MIC (Aspergillus [10]; SDB, 37 species of Aspergillus, bounds printed with ≤, b40, read-out: geometric mean MIC): ≤ 32 µg/mL; MFC (Aspergillus [13]; SDB, 37 species of Aspergillus, bounds printed with ≤, b40, read-out: geometric mean MFC): ≤ 32 µg/mL
